Where “and” joins values, the source holds several entries; their conditions need not be identical. Equal values may be shown once. Inconclusive results and toxic doses are left out.
System: BDF1 mice, P388 leukemia ip, median survival T/C
Assay: NCI In Vivo Anticancer Drug Screen. Data for tumor model P388 Leukemia (intraperitoneal) in B6D2F1 (BDF1) mice
Conditions: endpoint: median survival time, higher = longer survival
In short: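 Transplantable tumour in mice; compound vs vehicle dosing; survival scored; ratio of treated to control reported.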

[1] = dose: 200.0 mg/kg/injection, schedule: Q04DX003 (ip), vehicle: saline sonified
[2] = dose: 100.0 mg/kg/injection, schedule: Q04DX003 (ip), vehicle: saline with Tween-80
[3] = dose: 200.0 mg/kg/injection, schedule: Q04DX003 (ip), vehicle: saline with Tween-80
[4] = dose: 400.0 mg/kg/injection, schedule: Q04DX003 (ip), vehicle: saline with Tween-80
[5] = dose: 100.0 mg/kg/injection, schedule: Q01DX009 (ip), vehicle: saline with Tween-80
[6] = dose: 200.0 mg/kg/injection, schedule: Q01DX009 (ip), vehicle: saline with Tween-80

With `O/N=C(\c1ccccc1)C(c1ccccc1)C(Cl)(Cl)Cl` (configuration not stated) the T/C (dose: 100.0 mg/kg/injection, schedule: Q04DX003 (ip), vehicle: Klucel (hydroxypropylcellulose) (HPC)) was 100 % of control, the T/C (dose: 200.0 mg/kg/injection, schedule: Q04DX003 (ip), vehicle: Klucel (hydroxypropylcellulose) (HPC)) was 100 % of control and the T/C (dose: 400.0 mg/kg/injection, schedule: Q04DX003 (ip), vehicle: Klucel (hydroxypropylcellulose) (HPC)) was 100 % of control.
With `COc1cc(NC(N)=O)cc(OC)c1OC` the T/C (dose: 18.75 mg/kg/injection, schedule: Q04DX003 (ip), vehicle: saline sonified) was 100 % of control, the T/C (dose: 37.5 mg/kg/injection, schedule: Q04DX003 (ip), vehicle: saline sonified) was 86 % of control and the T/C (dose: 75.0 mg/kg/injection, schedule: Q04DX003 (ip), vehicle: saline sonified) was 100 % of control.
In the case of `Cc1ccc2c(ccc(/C=C/c3ccc(O)c4ncccc34)[n+]2C)c1`, the T/C (dose: 75.0 mg/kg/injection, schedule: Q01DX009 (ip), vehicle: Klucel (hydroxypropylcellulose) (HPC)) is reported as 104 % of control.
`CC[C@H]1CN2CCc3cc(OC)c(OC)cc3[C@@H]2C[C@@H]1C[C@H]1NCCc2cc(OC)c(OC)cc21` was tested, and the T/C (dose: 2.0 mg/kg/injection, schedule: Q01DX005 (ip), vehicle: saline) was 150 % of control, the T/C (dose: 2.0 mg/kg/injection, schedule: Q01DX009 (ip), vehicle: saline) was 150 % of control and the T/C (dose: 3.0 mg/kg/injection, schedule: Q01DX009 (oral), vehicle: saline) was 90 % of control. The T/C (dose: 3.5 mg/kg/injection, schedule: Q01DX010 (ip), vehicle: saline) was 154 % of control and 160 % of control, the T/C (dose: 4.0 mg/kg/injection, schedule: Q01DX005 (ip), vehicle: saline) was 175 % of control and the T/C (dose: 4.0 mg/kg/injection, schedule: Q01DX009 (ip), vehicle: saline) was 220 % of control. For the same compound, the T/C (dose: 4.0 mg/kg/injection, schedule: Q04DX003 (ip), vehicle: saline) was 103 % of control, the T/C (dose: 4.0 mg/kg/injection, schedule: Q## X003 (ip), vehicle: saline) was 115 % of control and the T/C (dose: 6.0 mg/kg/injection, schedule: Q01DX009 (oral), vehicle: saline) was 86 % of control. For the same compound, the T/C (dose: 7.0 mg/kg/injection, schedule: Q01DX010 (ip), vehicle: saline) was 222 % of control, the T/C (dose: 7.78 mg/kg/injection, schedule: Q04DX003 (ip), vehicle: saline) was 160 % of control and the T/C (dose: 8.0 mg/kg/injection, schedule: Q01DX005 (ip), vehicle: saline) was 90 % of control. The T/C (dose: 8.0 mg/kg/injection, schedule: Q04DX003 (ip), vehicle: saline) was 163 % of control, the T/C (dose: 8.0 mg/kg/injection, schedule: Q## X002 (ip), vehicle: saline) was 115 % of control and the T/C (dose: 8.0 mg/kg/injection, schedule: Q## X003 (ip), vehicle: saline) was 150 % of control. The T/C (dose: 13.0 mg/kg/injection, schedule: Q04DX003 (ip), vehicle: saline) was 151 % of control and 158 % of control and 192 % of control, the T/C (dose: 16.0 mg/kg/injection, schedule: Q04DX003 (ip), vehicle: saline) was 232 % of control and the T/C (dose: 16.0 mg/kg/injection, schedule: Q## X002 (ip), vehicle: saline) was 165 % of control. The T/C (dose: 16.0 mg/kg/injection, schedule: Q## X003 (ip), vehicle: saline) was 185 % of control, the T/C (dose: 16.0 mg/kg/injection, schedule: Q## X008 (ip), vehicle: saline) was 160 % of control and the T/C (dose: 16.0 mg/kg/injection, schedule: Q## X016 (ip), vehicle: saline) was 165 % of control. The T/C (dose: 16.0 mg/kg/injection, schedule: Q## X024 (ip), vehicle: saline) was 215 % of control, the T/C (dose: 18.0 mg/kg/injection, schedule: Q04DX003 (ip), vehicle: saline) was 185 % of control and the T/C (dose: 21.6 mg/kg/injection, schedule: Q04DX003 (ip), vehicle: saline) was 225 % of control and 235 % of control and 239 % of control. For the same compound, the T/C (dose: 32.0 mg/kg/injection, schedule: Q01DX001 (ip), vehicle: saline) was 150 % of control, the T/C (dose: 32.0 mg/kg/injection, schedule: Q## X002 (ip), vehicle: saline) was 210 % of control and the T/C (dose: 32.0 mg/kg/injection, schedule: Q## X003 (ip), vehicle: saline) was 90 % of control. The T/C (dose: 32.0 mg/kg/injection, schedule: Q## X016 (ip), vehicle: saline) was 150 % of control.
`O=C1C(Cl)=C(Cl)C(=O)C2=C1C1c3ccccc3C2c2ccccc21` was tested, and the T/C (dose: 100.0 mg/kg/injection, schedule: Q01DX009 (ip), vehicle: Klucel (hydroxypropylcellulose) (HPC)) was 115 % of control, the T/C (dose: 200.0 mg/kg/injection, schedule: Q01DX009 (ip), vehicle: Klucel (hydroxypropylcellulose) (HPC)) was 120 % of control and the T/C [1] was 109 % of control. The T/C (dose: 400.0 mg/kg/injection, schedule: Q01DX009 (ip), vehicle: Klucel (hydroxypropylcellulose) (HPC)) was 105 % of control and the T/C (dose: 400.0 mg/kg/injection, schedule: Q04DX003 (ip), vehicle: saline sonified) was 104 % of control.
With `COc1ccc(CCNC(=O)Cc2ccc(OC)c(OC)c2)cc1OC` the T/C [2] was 100 % of control, the T/C [3] was 95 % of control and the T/C [4] was 100 % of control.
For `O=C1C=CC(=O)N1CN1CCOCC1`, the T/C (dose: 3.12 mg/kg/injection, schedule: Q01DX009 (ip), vehicle: saline) was 120 % of control, the T/C (dose: 6.25 mg/kg/injection, schedule: Q01DX009 (ip), vehicle: saline) was 104 % of control and the T/C (dose: 12.5 mg/kg/injection, schedule: Q01DX009 (ip), vehicle: saline) was 116 % of control. The T/C (dose: 18.75 mg/kg/injection, schedule: Q01DX009 (ip), vehicle: saline) was 111 % of control.
With `CCCCOCCOc1ccc(C(=O)OC)cc1` the T/C (dose: 50.0 mg/kg/injection, schedule: Q04DX003 (ip), vehicle: saline sonified) was 100 % of control, the T/C (dose: 100.0 mg/kg/injection, schedule: Q04DX003 (ip), vehicle: saline sonified) was 100 % of control and the T/C [1] was 105 % of control.
In the case of `CC(=O)O.[Au].c1ccc([PH+](c2ccccc2)c2ccccc2)cc1`, the T/C [2] is reported as 110 % of control.
With `N=P(N[P+](N)(c1ccccc1)c1ccccc1)(c1ccccc1)c1ccccc1` the T/C (dose: 6.25 mg/kg/injection, schedule: Q01DX001 (ip), vehicle: saline) was 117 % of control, the T/C (dose: 8.2 mg/kg/injection, schedule: Q01DX001 (ip), vehicle: saline) was 100 % of control and the T/C (dose: 12.5 mg/kg/injection, schedule: Q01DX001 (ip), vehicle: saline) was 100 % of control. For the same compound, the T/C (dose: 18.0 mg/kg/injection, schedule: Q01DX001 (ip), vehicle: saline) was 104 % of control and the T/C (dose: 25.0 mg/kg/injection, schedule: Q01DX001 (ip), vehicle: saline) was 116 % of control.
For `N#CC1(c2ccc(Cl)cc2)CCC1`, the T/C [5] was 112 % of control and the T/C [6] was 108 % of control.
`C#CC1(O)CCC2C3CCc4cc(OC)ccc4C3CCC21C` (configuration not stated) was tested, and the T/C (dose: 40.0 mg/kg/injection, schedule: Q01DX009 (sc), vehicle: saline with Tween-80) was 100 % of control, the T/C (dose: 80.0 mg/kg/injection, schedule: Q01DX009 (sc), vehicle: saline with Tween-80) was 100 % of control and the T/C (dose: 100.0 mg/kg/injection, schedule: Q04DX003 (sc), vehicle: saline with Tween-80) was 88 % of control. The T/C (dose: 160.0 mg/kg/injection, schedule: Q01DX009 (sc), vehicle: saline with Tween-80) was 100 % of control, the T/C (dose: 200.0 mg/kg/injection, schedule: Q04DX003 (sc), vehicle: saline with Tween-80) was 94 % of control and the T/C (dose: 400.0 mg/kg/injection, schedule: Q04DX003 (sc), vehicle: saline with Tween-80) was 88 % of control.
`O=[N+]([O-])c1cccc2c([N+](=O)[O-])cccc12` was tested, and the T/C (dose: 100.0 mg/kg/injection, schedule: Q01DX001 (ip), vehicle: saline sonified) was 95 % of control, the T/C (dose: 200.0 mg/kg/injection, schedule: Q01DX001 (ip), vehicle: saline sonified) was 100 % of control and the T/C (dose: 400.0 mg/kg/injection, schedule: Q01DX001 (ip), vehicle: saline sonified) was 115 % of control.
With `O=C(NC(C(=O)O)c1ccccc1)OCc1ccccc1` (configuration not stated) the T/C [2] was 104 % of control, the T/C [3] was 109 % of control and the T/C [4] was 100 % of control.
With `CCCCCOC(CN)C(Cl)(Cl)Cl` (configuration not stated) the T/C (dose: 25.0 mg/kg/injection, schedule: Q01DX009 (ip), vehicle: saline) was 115 % of control, the T/C (dose: 33.0 mg/kg/injection, schedule: Q01DX009 (ip), vehicle: saline) was 100 % of control and 118 % of control and the T/C (dose: 50.0 mg/kg/injection, schedule: Q01DX009 (ip), vehicle: saline) was 113 % of control and 122 % of control. For the same compound, the T/C (dose: 75.0 mg/kg/injection, schedule: Q01DX009 (ip), vehicle: saline) was 109 % of control.
With `CNC1=C2NC(=O)/C(C)=C\C=C\C(C)C(O)C(C)C(O)C(C)C(OC(C)=O)C(C)C(OC)/C=C/OC3(C)Oc4c(C)c(O)c(c(c4C3=O)C1=O)C2=O` (configuration not stated) the T/C (dose: 50.0 mg/kg/injection, schedule: Q01DX009 (ip), vehicle: saline with Tween-80) was 95 % of control, the T/C [5] was 90 % of control and the T/C [6] was 100 % of control.

— PubChem BioAssay AID328 (DTP/NCI, 2004)
